Results on 2 molecules are retold here after patent US20260334439A1, “BCAT2 INHIBITORS” (Agios Pharmaceuticals, Inc., priority 2023, published 2026).

Test [1] has as its target T1, BCAT2 (Homo sapiens, UniProt O15382).
T1 sequence (O15382 28-392): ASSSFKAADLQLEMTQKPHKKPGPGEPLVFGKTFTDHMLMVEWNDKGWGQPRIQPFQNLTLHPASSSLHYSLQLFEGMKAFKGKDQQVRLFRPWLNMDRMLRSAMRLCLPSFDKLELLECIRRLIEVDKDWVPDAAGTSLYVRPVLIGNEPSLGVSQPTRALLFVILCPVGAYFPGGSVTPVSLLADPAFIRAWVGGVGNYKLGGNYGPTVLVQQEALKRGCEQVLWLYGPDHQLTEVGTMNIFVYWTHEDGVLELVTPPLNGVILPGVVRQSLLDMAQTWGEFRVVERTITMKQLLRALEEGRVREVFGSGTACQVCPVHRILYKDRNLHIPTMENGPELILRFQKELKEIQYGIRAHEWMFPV
In words: BCAT2 in vitro enzyme inhibition assay (hBCAT2, glutamate dehydrogenase/diaphorase/resazurin coupled fluorescence read). The class given is biochemical. To be noted: hBCAT2, 1 h preincubation at 25° C., one hour reaction; average where tested multiple times. Summed up: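 hBCAT2 (0.33 μg/mL in mix) preincubated 1 h at 25 °C with compound (top 100 μM, 3-fold, 10 points) in Tris pH 8.0/NaCl/BSA; substrate mix added (L-leucine, α-ketoglutarate, GDH, NAD, diaphorase, resazurin), quenched with SDS after 1 h, fluorescence Ex 540/Em 590; duplicates, repeat tests averaged.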

Test [2] has as its target T1, BCAT2. In words: BCAT2 cell inhibition using engineered A549 cells (MUT KO, BCAT1 KO; 13C6-KMV formation by LC-MS/MS). The class given is cell-based. The arrangement: expressed endogenous BCAT2; endogenous in cells; host or cells: A549 cells, MUT knockout and BCAT1 knockout. Summed up:
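Medium 13C6-KMV formation is read by LC-MS/MS after PFBHA derivatization with d8-KMV internal standard. Cells are CRISPR MUT/BCAT1 double-knockout A549 expressing endogenous BCAT2, given compound 15 min before labelled isoleucine (800 uM, added 1:1) for 24 h. CTG viability run in parallel; replicates averaged.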

pIC50: −log10 of the molar value.

Regarding `CC(=O)N1C[C@H](N2Cc3ccc(F)cc3C2=O)C[C@H](n2c(-c3ccccc3F)nc3cnc(-n4nccn4)cc32)C1` [Example 200, 2-((3R,5S)-1-acetyl-5-(2-(2-fluorophenyl)-6-(2H-1,2,3-triazol-2-yl)-1H-imidazo[4,5-c]pyridin-1-yl)piperidin-3-yl)-6-fluoroisoindolin-1-one], the pIC50 against BCAT2 [1] and on BCAT2 [2] was greater than 7.00 in each case.

Turning to `O=C(N[C@H]1CCC[C@@H](n2c(-c3ccccc3F)nc3cnc(-c4nc[nH]n4)cc32)C1)c1cc(C(F)F)ccn1` [compound 100], the negative-log IC50 (pIC50) against BCAT2 [1] and against BCAT2 [2] was greater than 7.00 in each case.
